Experimental data reported in US12297246B2, “Interleukin-15 activity antagonist peptide” (CENTRO DE INGENIERÍA GENÉTICA Y BIOTECNOLOGÍA, priority 2017, dated 2025).
Entries after “also recorded” stand apart in the source; their conditions may differ. Where a SMILES comes first, the peptide text is derived from it. Bridges are numbered along the chain shown (N, C = ends). Roman numbers before positions name the chains, in order. Where no end group is shown, it is not given here. [ ]: non-standard residue; d: D form.

Columns and labels:
CTLL-2 cells = assay: IL-15-induced CTLL-2 cell proliferation assay; type: cell-based; details: for IC50: fixed IL-15 concentration of 300 μg/mL, colorimetric assay
Excerpt: The proliferation of the CTLL-2 cell line is dependent on IL-15. Molecular entities that bind to IL-15 or its receptor subunit inhibit the proliferation of this cell line. To evaluate the antagonist capacity of peptides designed and obtained in the present invention, was followed the procedure described by Santos et al in 2012. Peptide 1 was included in all assays.
The realization of this colorimetric assay allowed calculating the IC50 value of each peptide, for a fixed IL-15 concentration of 300 μg/mL.

[1] = Solubility of the peptides
IL-15/IL-15Rα complex = target: T1, IL-15/IL-15Rα complex (Homo sapiens, UniProt Q13261); assay: Inhibition of IL-15/IL-15Rα complex formation (ELISA-type test); type: binding
T1 construct: all evaluated peptides recognized IL-15Rα immobilized on the ELISA plate
T1 sequence (Q13261 31-205 limits assumed, one chain of several): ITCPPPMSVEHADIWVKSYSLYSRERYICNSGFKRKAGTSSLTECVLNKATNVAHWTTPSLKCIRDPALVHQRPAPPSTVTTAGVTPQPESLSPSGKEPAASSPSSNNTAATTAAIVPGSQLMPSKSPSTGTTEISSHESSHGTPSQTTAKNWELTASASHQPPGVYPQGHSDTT
Experimental: Once the synthetic peptides were obtained and characterized, their binding capacity to IL-15Rα was determined. This evaluation was carried out by means of an ELISA type test. In addition, the % inhibition of the formation of the IL-15/IL-15Rα complex presented by each peptide was calculated. Both the procedure for the ELISA-type test and the equation used to calculate the % inhibition of the formation of the IL-15/IL-15Rα complex are detailed in the article published by Santos et al in 2012 (Santos A. et al. J. Pept. Sci. 2012; 18: 25-29).

Row | Compound | IC50 (CTLL-2 cells) [µM] | solubility [1] | % inhibition of IL-15/IL-15Rα complex formation (IL-15/IL-15Rα complex) [%] | antagonist effect compared with Peptide 1 (CTLL-2 cells; IL-15-induced CTLL-2 proliferation)
1 | CSCC[C@H](NC(=O)[C@H](C)NC(=O)[C@@H](NC(=O)[C@@H](NC(=O)[C@H](N)CCCCN)C(C)C)[C@@H](C)O)C(=O)N[C@@H](CCCCN)C(=O)N[C@@H](CS)C(=O)N[C@@H](Cc1ccccc1)C(=O)N[C@@H](CC(C)C)C(=O)N[C@@H](CC(C)C)C(N)=O [Peptide 2] (H-[dK]VTAMKCFLL-NH2) | 100 |  |  | 
2 | CSCC[C@H](NC(=O)[C@H](C)NC(=O)[C@@H](NC(=O)[C@H](NC(=O)[C@@H](N)CCCCN)C(C)C)[C@@H](C)O)C(=O)N[C@@H](CCCCN)C(=O)N[C@@H](CS)C(=O)N[C@@H](Cc1ccccc1)C(=O)N[C@@H](CC(C)C)C(=O)N[C@@H](CC(C)C)C(N)=O [Peptide 3] (H-K[dV]TAMKCFLL-NH2) | 142 |  |  | 
3 | CSCC[C@H](NC(=O)[C@H](C)NC(=O)[C@H](NC(=O)[C@@H](NC(=O)[C@@H](N)CCCCN)C(C)C)[C@H](C)O)C(=O)N[C@@H](CCCCN)C(=O)N[C@@H](CS)C(=O)N[C@@H](Cc1ccccc1)C(=O)N[C@@H](CC(C)C)C(=O)N[C@@H](CC(C)C)C(N)=O [Peptide 4] (H-KV[dT]AMKCFLL-NH2) | 159 |  |  | 
4 | CSCC[C@H](NC(=O)[C@@H](C)NC(=O)[C@@H](NC(=O)[C@@H](NC(=O)[C@@H](N)CCCCN)C(C)C)[C@@H](C)O)C(=O)N[C@@H](CCCCN)C(=O)N[C@@H](CS)C(=O)N[C@@H](Cc1ccccc1)C(=O)N[C@@H](CC(C)C)C(=O)N[C@@H](CC(C)C)C(N)=O [Peptide 5] (H-KVT[dA]MKCFLL-NH2) | 28 | completely soluble | 92 | 
5 | CSCC[C@@H](NC(=O)[C@H](C)NC(=O)[C@@H](NC(=O)[C@@H](NC(=O)[C@@H](N)CCCCN)C(C)C)[C@@H](C)O)C(=O)N[C@@H](CCCCN)C(=O)N[C@@H](CS)C(=O)N[C@@H](Cc1ccccc1)C(=O)N[C@@H](CC(C)C)C(=O)N[C@@H](CC(C)C)C(N)=O [Peptide 6] (H-KVTA[dM]KCFLL-NH2) | 292 |  |  | 
6 | CSCC[C@H](NC(=O)[C@H](C)NC(=O)[C@@H](NC(=O)[C@@H](NC(=O)[C@@H](N)CCCCN)C(C)C)[C@@H](C)O)C(=O)N[C@H](CCCCN)C(=O)N[C@@H](CS)C(=O)N[C@@H](Cc1ccccc1)C(=O)N[C@@H](CC(C)C)C(=O)N[C@@H](CC(C)C)C(N)=O [Peptide 7] (H-KVTAM[dK]CFLL-NH2) | 168 |  |  | 
7 | CSCC[C@H](NC(=O)[C@H](C)NC(=O)[C@@H](NC(=O)[C@@H](NC(=O)[C@@H](N)CCCCN)C(C)C)[C@@H](C)O)C(=O)N[C@@H](CCCCN)C(=O)N[C@H](CS)C(=O)N[C@@H](Cc1ccccc1)C(=O)N[C@@H](CC(C)C)C(=O)N[C@@H](CC(C)C)C(N)=O [Peptide 8] (H-KVTAMK[dC]FLL-NH2) | 103 |  |  | 
8 | CSCC[C@H](NC(=O)[C@H](C)NC(=O)[C@@H](NC(=O)[C@@H](NC(=O)[C@@H](N)CCCCN)C(C)C)[C@@H](C)O)C(=O)N[C@@H](CCCCN)C(=O)N[C@@H](CS)C(=O)N[C@H](Cc1ccccc1)C(=O)N[C@@H](CC(C)C)C(=O)N[C@@H](CC(C)C)C(N)=O [Peptide 9] (H-KVTAMKC[dF]LL-NH2) | 118 |  |  | 
9 | CSCC[C@H](NC(=O)[C@H](C)NC(=O)[C@@H](NC(=O)[C@@H](NC(=O)[C@@H](N)CCCCN)C(C)C)[C@@H](C)O)C(=O)N[C@@H](CCCCN)C(=O)N[C@@H](CS)C(=O)N[C@@H](Cc1ccccc1)C(=O)N[C@H](CC(C)C)C(=O)N[C@@H](CC(C)C)C(N)=O [Peptide 10] (H-KVTAMKCF[dL]L-NH2) | 134 |  |  | 
10 | CSCC[C@H](NC(=O)[C@H](C)NC(=O)[C@@H](NC(=O)[C@@H](NC(=O)[C@@H](N)CCCCN)C(C)C)[C@@H](C)O)C(=O)N[C@@H](CCCCN)C(=O)N[C@@H](CS)C(=O)N[C@@H](Cc1ccccc1)C(=O)N[C@@H](CC(C)C)C(=O)N[C@H](CC(C)C)C(N)=O [Peptide 11] (H-KVTAMKCFL[dL]-NH2) | 133 |  |  | 
11 | CSCC[C@H](NC(=O)[C@@H](C)NC(=O)[C@@H](NC(=O)[C@@H](NC(=O)[C@@H](N)CCCCN)C(C)C)[C@@H](C)O)C(=O)N[C@@H](CCCCN)C(=O)N[C@@H](CSSC[C@H](NC(=O)[C@H](CCCCN)NC(=O)[C@H](CCSC)NC(=O)[C@@H](C)NC(=O)[C@@H](NC(=O)[C@@H](NC(=O)[C@@H](N)CCCCN)C(C)C)[C@@H](C)O)C(=O)N[C@@H](Cc1ccccc1)C(=O)N[C@@H](CC(C)C)C(=O)N[C@@H](CC(C)C)C(N)=O)C(=O)N[C@@H](Cc1ccccc1)C(=O)N[C@@H](CC(C)C)C(=O)N[C@@H](CC(C)C)C(N)=O [Peptide 12] (I: H-KVT[dA]MKCFLL-NH2 / II: H-KVT[dA]MKCFLL-NH2; disulfide I:7-II:7) | 8 | completely soluble | 96 | 
12 | CSCC[C@H](NC(=O)[C@@H](C)NC(=O)[C@@H](NC(=O)[C@@H](NC(=O)[C@H](N)CCCCN)C(C)C)[C@@H](C)O)C(=O)N[C@@H](CCCCN)C(=O)N[C@@H](CS)C(=O)N[C@@H](Cc1ccccc1)C(=O)N[C@@H](CC(C)C)C(=O)N[C@@H](CC(C)C)C(N)=O [Peptide 13] (H-[dK]VT[dA]MKCFLL-NH2) | 29 | completely soluble | 89 | 
13 | CSCC[C@H](NC(=O)[C@@H](C)NC(=O)[C@@H](NC(=O)[C@@H](NC(=O)[C@H](N)CCCCN)C(C)C)[C@@H](C)O)C(=O)N[C@@H](CCCCN)C(=O)N[C@@H](CSSC[C@H](NC(=O)[C@H](CCCCN)NC(=O)[C@H](CCSC)NC(=O)[C@@H](C)NC(=O)[C@@H](NC(=O)[C@@H](NC(=O)[C@H](N)CCCCN)C(C)C)[C@@H](C)O)C(=O)N[C@@H](Cc1ccccc1)C(=O)N[C@@H](CC(C)C)C(=O)N[C@@H](CC(C)C)C(N)=O)C(=O)N[C@@H](Cc1ccccc1)C(=O)N[C@@H](CC(C)C)C(=O)N[C@@H](CC(C)C)C(N)=O [Peptide 14] (I: H-[dK]VT[dA]MKCFLL-NH2 / II: H-[dK]VT[dA]MKCFLL-NH2; disulfide I:7-II:7) | 12 | completely soluble | 92 | 
14 | CSCC[C@H](NC(=O)[C@@H](C)NC(=O)[C@@H](NC(=O)[C@@H](NC(=O)[C@@H](N)CCCCN)C(C)C)[C@@H](C)O)C(=O)N[C@@H](CCCCN)C(=O)N[C@H](CS)C(=O)N[C@@H](Cc1ccccc1)C(=O)N[C@@H](CC(C)C)C(=O)N[C@@H](CC(C)C)C(N)=O [Peptide 15] (H-KVT[dA]MK[dC]FLL-NH2; N-terminus assumed) | 296 |  |  | equal or less antagonist effect than the original peptide; also recorded: less active than Peptide 1
15 | KVTAMKCFLL-NH2 [Peptide 1, reference compound] | 130 |  |  | 
